Laboratory results from PubChem BioAssay AID248 (DTP/NCI, 2004).
Toxic doses and inconclusive results are not listed. No stated cut-off is given here; in the data, active means T/C of 150% or more; inactive means T/C below 125%.

Tested on: L1210 leukemia ip in BDF1 mice, survival T/C
Experiment: NCI In Vivo Anticancer Drug Screen. Data for tumor model L1210 Leukemia (intraperitoneal) in B6D2F1 (BDF1) mice
Conditions: endpoint: mean survival time, higher = longer survival
How it was run: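 Mice bearing the transplanted tumor received compound or vehicle. Survival of the treated group was divided by that of the vehicle-treated control group to give the ratio.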

[1] = dose: 100.0 mg/kg/injection, schedule: Q04DX003 (ip), vehicle: saline with Tween-80
[2] = dose: 200.0 mg/kg/injection, schedule: Q04DX003 (ip), vehicle: saline with Tween-80
[3] = dose: 400.0 mg/kg/injection, schedule: Q04DX003 (ip), vehicle: saline with Tween-80

Measured: T/C

O=S(=O)(Cl)CCCBr
inactive: dose: 100.0 mg/kg/injection, schedule: Q01DX009 (ip), vehicle: saline sonified 93 % of control | dose: 200.0 mg/kg/injection, schedule: Q01DX009 (ip), vehicle: saline sonified 86 % of control

COc1ccc(-c2c(C)c(C(=O)O)nc(-c3ccc4c(O)c(OC)c5c(c4n3)=NC(C)(C)N=5)c2N)c(O)c1OC
inactive: dose: 4.5 mg/kg/injection, schedule: Q01DX Z (ip), vehicle: water 104 % of control | dose: 6.7 mg/kg/injection, schedule: Q01DX Z (ip), vehicle: water 97 % of control | dose: 10.0 mg/kg/injection, schedule: Q01DX Z (ip), vehicle: water 111 % of control | dose: 15.0 mg/kg/injection, schedule: Q01DX Z (ip), vehicle: water 103 % of control

CCOC(=O)c1c(-c2cc(OC)c(OC)c(OC)c2)csc1N
inactive: dose: 50.0 mg/kg/injection, schedule: Q04DX003 (ip), vehicle: saline with Tween-80 95 % of control | [1] 97 % of control | [2] 87 % of control | [3] 94 % of control

O=[N+]([O-])c1cccc(S(=O)(=O)OCCOc2ccccc2)c1
inactive: [1] 103 % of control | [2] 101 % of control | [3] 101 % of control

CCC[N+]12CC=C(CO)C1C(O)CC2 (centres undefined)
inactive: dose: 100.0 mg/kg/injection, schedule: Q01DX001 (ip), vehicle: saline 103 % of control | dose: 200.0 mg/kg/injection, schedule: Q01DX001 (ip), vehicle: saline 100 % of control | dose: 400.0 mg/kg/injection, schedule: Q01DX001 (ip), vehicle: saline 110 % of control

CC1CC(=O)NC(=O)N1Cc1ccccc1 (centres undefined)
inactive: dose: 100.0 mg/kg/injection, schedule: Q01DX Z (ip), vehicle: methylcellulose (MC) 91 % of control | dose: 200.0 mg/kg/injection, schedule: Q01DX Z (ip), vehicle: methylcellulose (MC) 92 % of control

NC(=O)c1nc2c([nH]c1=O)CCCC2
inactive: dose: 100.0 mg/kg/injection, schedule: Q01DX009 (ip), vehicle: saline with Tween-80 94 % of control | [1] 93 % of control | dose: 200.0 mg/kg/injection, schedule: Q01DX009 (ip), vehicle: saline with Tween-80 94 % of control | [2] 94 % of control | dose: 400.0 mg/kg/injection, schedule: Q01DX009 (ip), vehicle: saline with Tween-80 94 % of control | [3] 94 % of control

NC(Cc1cc(I)c(Oc2ccc(O)c(I)c2)c(I)c1)C(=O)O (centres undefined)
inactive: dose: 25.0 micrograms/kg/injection, schedule: Q01DX Z (ip), vehicle: saline 86 % of control | dose: 50.0 micrograms/kg/injection, schedule: Q01DX Z (ip), vehicle: saline 92 % of control | dose: 100.0 micrograms/kg/injection, schedule: Q01DX Z (ip), vehicle: saline 101 % of control | dose: 200.0 micrograms/kg/injection, schedule: Q01DX Z (ip), vehicle: saline 89 % of control

CN(C)C1C2C(CS2(=O)=O)C1(C)C (centres undefined)
inactive: dose: 75.0 mg/kg/injection, schedule: Q01DX001 (ip), vehicle: carboxymethylcellulose (CMC) 100 % of control | dose: 150.0 mg/kg/injection, schedule: Q01DX001 (ip), vehicle: carboxymethylcellulose (CMC) 100 % of control

CCN(CC)CCNc1c(C)cc(CO)c(Cl)c1C
inactive: dose: 31.25 mg/kg/injection, schedule: Q01DX009 (ip), vehicle: saline 97 % of control | dose: 62.5 mg/kg/injection, schedule: Q01DX009 (ip), vehicle: saline 99 % of control | dose: 125.0 mg/kg/injection, schedule: Q01DX009 (ip), vehicle: saline 97 % of control | dose: 250.0 mg/kg/injection, schedule: Q01DX009 (ip), vehicle: saline 103 % of control

CC(=O)Oc1ccc(N2C(=O)C=CC2=O)cc1 (tested in a mixture with another compound)
inactive: dose: 100.0 mg/kg/injection, schedule: Q04DX003 (ip), vehicle: acetone 96 % of control | dose: 100.0 mg/kg/injection, schedule: Q04DX003 (ip), vehicle: other 89 % of control | dose: 200.0 mg/kg/injection, schedule: Q04DX003 (ip), vehicle: acetone 96 % of control | dose: 400.0 mg/kg/injection, schedule: Q04DX003 (ip), vehicle: acetone 100 % of control | dose: 400.0 mg/kg/injection, schedule: Q04DX003 (ip), vehicle: other 87 % of control

CCOP(=O)(C(O)C(Cl)(Cl)Cl)C(O)C(Cl)(Cl)Cl (centres undefined)
inactive: dose: 75.0 mg/kg/injection, schedule: Q04DX003 (ip), vehicle: saline with Tween-80 95 % of control | dose: 150.0 mg/kg/injection, schedule: Q04DX003 (ip), vehicle: saline with Tween-80 97 % of control

N/N=C/c1ccccc1[N+](=O)[O-]
inactive: dose: 100.0 mg/kg/injection, schedule: Q01DX001 (ip), vehicle: other 97 % of control | dose: 200.0 mg/kg/injection, schedule: Q01DX001 (ip), vehicle: other 95 % of control | dose: 400.0 mg/kg/injection, schedule: Q01DX001 (ip), vehicle: other 111 % of control
